Common to all, as to experiment: biochemical
Holding throughout (design): in vitro kinase selectivity panel, protein and lipid kinases, single concentration, ATP at Km
Common to all, as to conditions: ATP at Km

One assay has as its target T1, LKB1(h) (Homo sapiens, UniProt Q15831).
T1 construct: gene STK11
The procedure, abridged:
(§1)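 Single-point screen against a protein and lipid kinase panel: inhibitor at 1 μM. ATP concentration for every kinase equivalent to its Km.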

A further assay addresses T2, CDK5/p35(h) (Homo sapiens, UniProt Q00535).
T2 construct: p35
The procedure, abridged: as §1

For another assay, the target named is T3, ROCK-I(h) (Homo sapiens, UniProt Q13464).
T3 construct: gene ROCK1
The gist of the method: as §1

For another assay, the target named is EGFR(L861Q)(h) (Homo sapiens, UniProt P00533, L861Q). The gist of the method:
as §1

In a further assay the target is T4, p70S6K(h) (Homo sapiens, UniProt P23443).
T4 construct: gene RPS6KB1
The procedure, abridged: as §1

For a further assay, the target named is T5, CK1γ3(h) (Homo sapiens, UniProt Q9Y6M4).
T5 construct: gene CSNK1G3
The gist of the method: as §1

The next assay deals with T6, MST3(h) (Homo sapiens, UniProt Q9Y6E0).
T6 construct: gene STK24
The procedure, abridged:
as §1

The target in another assay is CHKA (Homo sapiens, UniProt P35790). The gist of the method: as §1
A further assay deals with T7, cKit(D816H)(h) (Homo sapiens, UniProt P10721, D816H).
T7 construct: gene KIT
The gist of the method: as §1

Another assay concerns the target T8, CHK1(h) (Homo sapiens, UniProt O14757).
T8 construct: gene CHEK1
The gist of the method:
as §1

In another assay the target is T9, PKCγ(h) (Homo sapiens, UniProt P05129).
T9 construct: gene PRKCG
The gist of the method: as §1

The target of another assay is PAK4(h) (Homo sapiens, UniProt O96013). The procedure, abridged:
as §1

Another assay addresses T10, PKCθ(h) (Homo sapiens, UniProt Q04759).
T10 construct: gene PRKCQ
The procedure, abridged: as §1

Another assay has as its target T11, PIK3CA / p85 (h) (Homo sapiens, UniProt P42336).
T11 construct: p110alpha/p85
The procedure, abridged:
as §1

The next assay addresses T12, IKKα(h) (Homo sapiens, UniProt O15111).
T12 construct: gene CHUK
The gist of the method: as §1

Another assay deals with LIMK1(h) (Homo sapiens, UniProt P53667). The gist of the method: as §1
The next assay addresses T13, PKD2(h) (Homo sapiens, UniProt Q9BZL6).
T13 construct: gene PRKD2
The procedure, abridged:
as §1

For orientation: inhibition means the relative decrease from the control value, in per cent.

T3 sequence (Q13464 whole entry): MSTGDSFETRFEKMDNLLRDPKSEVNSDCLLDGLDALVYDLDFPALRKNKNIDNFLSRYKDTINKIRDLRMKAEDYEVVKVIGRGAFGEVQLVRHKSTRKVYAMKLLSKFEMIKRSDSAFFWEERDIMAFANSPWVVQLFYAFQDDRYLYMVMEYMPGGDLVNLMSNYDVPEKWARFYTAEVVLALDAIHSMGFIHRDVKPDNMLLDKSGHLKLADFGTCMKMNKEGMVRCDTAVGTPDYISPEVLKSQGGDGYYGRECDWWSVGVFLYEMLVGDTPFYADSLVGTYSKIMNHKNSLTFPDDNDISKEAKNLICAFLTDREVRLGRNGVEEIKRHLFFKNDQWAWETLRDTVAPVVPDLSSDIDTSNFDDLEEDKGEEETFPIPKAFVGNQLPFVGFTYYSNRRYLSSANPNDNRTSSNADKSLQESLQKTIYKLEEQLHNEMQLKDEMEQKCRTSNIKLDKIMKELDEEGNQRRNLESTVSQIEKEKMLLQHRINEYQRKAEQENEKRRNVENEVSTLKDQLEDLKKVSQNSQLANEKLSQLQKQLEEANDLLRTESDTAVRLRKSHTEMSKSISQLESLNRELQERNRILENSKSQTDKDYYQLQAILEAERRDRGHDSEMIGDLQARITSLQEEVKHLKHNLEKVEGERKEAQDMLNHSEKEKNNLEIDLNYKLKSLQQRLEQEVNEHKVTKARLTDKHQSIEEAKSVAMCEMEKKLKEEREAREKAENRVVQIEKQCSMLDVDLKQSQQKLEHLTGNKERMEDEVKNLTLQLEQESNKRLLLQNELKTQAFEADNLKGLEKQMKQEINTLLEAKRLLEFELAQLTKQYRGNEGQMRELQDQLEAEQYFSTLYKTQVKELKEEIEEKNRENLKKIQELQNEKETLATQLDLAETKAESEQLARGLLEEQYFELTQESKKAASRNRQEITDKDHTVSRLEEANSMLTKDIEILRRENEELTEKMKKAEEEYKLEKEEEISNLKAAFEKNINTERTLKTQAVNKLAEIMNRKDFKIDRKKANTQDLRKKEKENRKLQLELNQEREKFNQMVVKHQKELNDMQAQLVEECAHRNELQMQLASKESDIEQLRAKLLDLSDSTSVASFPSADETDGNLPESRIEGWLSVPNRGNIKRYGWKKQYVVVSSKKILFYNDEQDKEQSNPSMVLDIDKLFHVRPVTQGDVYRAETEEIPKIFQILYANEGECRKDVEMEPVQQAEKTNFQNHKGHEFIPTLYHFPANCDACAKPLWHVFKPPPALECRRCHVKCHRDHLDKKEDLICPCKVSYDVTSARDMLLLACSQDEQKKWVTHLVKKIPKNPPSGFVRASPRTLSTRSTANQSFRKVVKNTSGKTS
T6 sequence (Q9Y6E0 whole entry): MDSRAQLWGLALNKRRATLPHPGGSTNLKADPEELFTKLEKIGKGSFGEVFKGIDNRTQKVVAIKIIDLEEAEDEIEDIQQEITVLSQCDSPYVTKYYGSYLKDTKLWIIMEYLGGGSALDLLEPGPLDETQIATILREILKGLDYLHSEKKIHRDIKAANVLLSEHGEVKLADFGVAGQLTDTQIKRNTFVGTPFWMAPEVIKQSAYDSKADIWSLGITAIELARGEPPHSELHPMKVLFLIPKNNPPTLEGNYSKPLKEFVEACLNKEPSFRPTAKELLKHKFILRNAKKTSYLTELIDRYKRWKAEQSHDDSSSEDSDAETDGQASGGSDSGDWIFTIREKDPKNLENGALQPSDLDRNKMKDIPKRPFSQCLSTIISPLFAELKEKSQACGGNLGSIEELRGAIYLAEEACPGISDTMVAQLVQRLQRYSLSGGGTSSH
T7 sequence (P10721 whole entry D816H): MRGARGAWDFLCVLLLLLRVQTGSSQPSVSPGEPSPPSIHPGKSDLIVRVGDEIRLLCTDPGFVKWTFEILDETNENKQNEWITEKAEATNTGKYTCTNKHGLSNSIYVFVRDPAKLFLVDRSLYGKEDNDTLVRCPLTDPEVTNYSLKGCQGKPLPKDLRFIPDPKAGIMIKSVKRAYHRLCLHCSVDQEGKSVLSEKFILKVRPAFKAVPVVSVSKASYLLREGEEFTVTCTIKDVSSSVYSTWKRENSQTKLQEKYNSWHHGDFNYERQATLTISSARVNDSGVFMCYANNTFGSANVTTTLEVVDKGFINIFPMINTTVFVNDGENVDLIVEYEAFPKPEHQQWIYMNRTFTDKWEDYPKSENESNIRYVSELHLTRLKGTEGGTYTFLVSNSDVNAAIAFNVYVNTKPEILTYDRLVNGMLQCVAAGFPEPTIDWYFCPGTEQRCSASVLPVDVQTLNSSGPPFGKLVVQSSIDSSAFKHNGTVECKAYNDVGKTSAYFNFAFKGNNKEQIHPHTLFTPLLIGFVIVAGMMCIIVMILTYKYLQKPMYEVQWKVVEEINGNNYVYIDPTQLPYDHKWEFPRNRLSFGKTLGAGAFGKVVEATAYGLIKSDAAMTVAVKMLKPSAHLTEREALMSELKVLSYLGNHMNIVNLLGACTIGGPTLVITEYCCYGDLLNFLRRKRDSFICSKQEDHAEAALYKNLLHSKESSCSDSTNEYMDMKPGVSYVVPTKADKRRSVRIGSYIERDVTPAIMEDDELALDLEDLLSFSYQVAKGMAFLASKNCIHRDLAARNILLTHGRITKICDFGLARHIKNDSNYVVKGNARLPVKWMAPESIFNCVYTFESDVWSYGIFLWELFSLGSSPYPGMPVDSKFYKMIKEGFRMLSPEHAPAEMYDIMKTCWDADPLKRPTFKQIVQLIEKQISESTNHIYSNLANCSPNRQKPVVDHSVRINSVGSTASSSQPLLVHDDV
Sequence of CHKA (P35790 whole entry): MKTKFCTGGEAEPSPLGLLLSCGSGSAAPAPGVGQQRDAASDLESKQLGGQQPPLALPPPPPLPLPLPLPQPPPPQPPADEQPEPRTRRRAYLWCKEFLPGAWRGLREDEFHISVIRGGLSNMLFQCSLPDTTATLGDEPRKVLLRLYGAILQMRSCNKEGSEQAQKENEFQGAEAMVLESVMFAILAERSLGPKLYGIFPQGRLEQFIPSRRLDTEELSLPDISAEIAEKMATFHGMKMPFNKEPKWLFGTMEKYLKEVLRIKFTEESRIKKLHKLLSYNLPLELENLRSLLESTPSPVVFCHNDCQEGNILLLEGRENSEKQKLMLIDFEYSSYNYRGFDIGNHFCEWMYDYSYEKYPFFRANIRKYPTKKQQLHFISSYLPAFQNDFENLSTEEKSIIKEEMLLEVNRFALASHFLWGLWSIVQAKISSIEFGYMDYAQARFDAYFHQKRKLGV
Sequence of PAK4(h) (O96013 whole entry): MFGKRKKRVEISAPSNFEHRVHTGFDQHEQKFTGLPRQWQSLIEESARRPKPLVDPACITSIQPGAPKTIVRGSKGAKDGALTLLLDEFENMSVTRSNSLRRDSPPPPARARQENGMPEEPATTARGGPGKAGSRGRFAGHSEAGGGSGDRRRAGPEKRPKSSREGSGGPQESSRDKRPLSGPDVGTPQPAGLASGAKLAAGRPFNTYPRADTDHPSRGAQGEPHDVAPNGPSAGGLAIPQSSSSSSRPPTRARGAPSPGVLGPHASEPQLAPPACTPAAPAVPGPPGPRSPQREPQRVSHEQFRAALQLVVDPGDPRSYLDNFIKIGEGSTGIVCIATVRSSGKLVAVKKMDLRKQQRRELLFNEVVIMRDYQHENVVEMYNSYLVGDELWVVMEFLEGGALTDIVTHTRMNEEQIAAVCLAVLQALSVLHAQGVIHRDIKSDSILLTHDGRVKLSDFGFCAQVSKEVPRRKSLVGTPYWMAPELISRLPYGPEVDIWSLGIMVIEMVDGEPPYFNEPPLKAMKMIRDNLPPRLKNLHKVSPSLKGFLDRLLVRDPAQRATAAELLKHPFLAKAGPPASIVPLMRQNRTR
T10 sequence (Q04759 whole entry): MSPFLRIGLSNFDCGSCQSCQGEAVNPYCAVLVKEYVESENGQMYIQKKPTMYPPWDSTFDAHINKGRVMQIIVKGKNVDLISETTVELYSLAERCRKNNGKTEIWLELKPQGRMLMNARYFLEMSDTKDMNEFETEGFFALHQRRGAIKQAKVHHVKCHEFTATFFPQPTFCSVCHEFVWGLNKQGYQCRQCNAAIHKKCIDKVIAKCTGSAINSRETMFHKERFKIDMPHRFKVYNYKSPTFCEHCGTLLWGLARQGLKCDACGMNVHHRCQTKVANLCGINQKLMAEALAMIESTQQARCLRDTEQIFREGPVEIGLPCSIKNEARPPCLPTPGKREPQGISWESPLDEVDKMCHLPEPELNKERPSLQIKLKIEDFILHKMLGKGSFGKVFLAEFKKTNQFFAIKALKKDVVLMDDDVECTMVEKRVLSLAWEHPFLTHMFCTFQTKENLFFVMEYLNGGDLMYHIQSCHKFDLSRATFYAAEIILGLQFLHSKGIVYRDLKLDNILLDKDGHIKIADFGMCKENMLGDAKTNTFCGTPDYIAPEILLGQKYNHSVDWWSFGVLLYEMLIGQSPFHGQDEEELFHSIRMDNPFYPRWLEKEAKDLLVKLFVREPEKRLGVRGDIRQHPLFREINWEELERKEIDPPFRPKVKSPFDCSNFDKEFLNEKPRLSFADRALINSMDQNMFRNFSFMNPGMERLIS
T5 sequence (Q9Y6M4 whole entry): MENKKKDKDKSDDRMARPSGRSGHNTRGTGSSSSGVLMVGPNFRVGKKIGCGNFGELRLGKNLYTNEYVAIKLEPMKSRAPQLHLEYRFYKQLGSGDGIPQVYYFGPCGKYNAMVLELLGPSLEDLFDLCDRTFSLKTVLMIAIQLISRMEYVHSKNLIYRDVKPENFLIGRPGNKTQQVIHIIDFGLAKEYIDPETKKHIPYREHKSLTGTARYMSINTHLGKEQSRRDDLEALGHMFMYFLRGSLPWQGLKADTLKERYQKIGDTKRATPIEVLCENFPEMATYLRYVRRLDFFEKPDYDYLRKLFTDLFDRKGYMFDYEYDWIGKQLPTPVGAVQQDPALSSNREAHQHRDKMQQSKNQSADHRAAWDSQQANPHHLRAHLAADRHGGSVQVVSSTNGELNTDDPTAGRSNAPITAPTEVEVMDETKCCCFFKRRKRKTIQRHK

For `CC[C@@H](N)CNc1ccnc(-c2cc(-c3cnn(C)c3)ccc2O)n1` [CRT0066101], the inhibition at 1 µM is -13% on LKB1(h); 95% at CDK5/p35(h); 4% against ROCK-I(h); 10% at EGFR(L861Q)(h); 31% against p70S6K(h); -3% on CK1γ3(h). Besides, the inhibition at 1 µM at MST3(h) was -6%; on CHKA, 1%; at cKit(D816H)(h), 51%; on CHK1(h), -2%; on PKCγ(h), 7%; against PAK4(h), 4%. Further, the inhibition at 1 µM was 6% against PKCθ(h); -1% against PIK3CA / p85 (h); 66% at IKKα(h); 0% against LIMK1(h); 96% against PKD2(h).

(Values after publication PMC5391474, “Investigation of the Role of Protein Kinase D in Human Rhinovirus Replication” (Journal of Virology, 2017).)
